Data from patent US20210085467A1, “SELECTIVE TARGETED RELEASE” (WEST VIRGINIA UNIVERSITY, priority 2018, published 2021).

What was measured:
free floating bacteria = assay: Drug levels necessary to treat free floating bacteria; conditions: planktonic bacteria
biofilm infections = assay: Drug levels necessary to treat biofilm infections

## CN[C@H](CC(C)C)C(=O)N[C@H]1C(=O)N[C@@H](CC(N)=O)C(=O)N[C@H]2C(=O)N[C@H]3C(=O)N[C@H](C(=O)N[C@H](C(=O)O)c4cc(O)cc(O)c4-c4cc3ccc4O)[C@H](O)c3ccc(c(Cl)c3)Oc3cc2cc(c3O[C@@H]2O[C@H](CO)[C@@H](O)[C@H](O)[C@H]2O[C@H]2C[C@](C)(N)[C@H](O)[C@H](C)O2)Oc2ccc(cc2Cl)[C@H]1O [vancomycin]
Free floating bacteria
  drug levels necessary to treat free floating bacteria: 1 to 10 µg/mL
Biofilm infections
  drug levels necessary to treat biofilm infections: 10 to 100 µg/mL
